Experimental data reported in PubChem BioAssay AID248 (DTP/NCI, 2004).
“And” between values parts separate entries of the source, which are not always exact repeats. Equal entries are not always repeated. Inconclusive results and toxic doses are left out. Rule as the data show it: active = T/C of 150% or more; inactive = T/C below 125%.

Test system: L1210 leukemia ip in BDF1 mice, survival T/C
Assay: NCI In Vivo Anticancer Drug Screen. Data for tumor model L1210 Leukemia (intraperitoneal) in B6D2F1 (BDF1) mice
Conditions: endpoint: mean survival time, higher = longer survival
In short: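 Transplanted-tumor mice were given test agent; controls received vehicle only. Survival readings from the two groups were divided (treated over control).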

[1] = dose: 100.0 mg/kg/injection, schedule: Q01DX009 (ip), vehicle: Klucel (hydroxypropylcellulose) (HPC)
[2] = dose: 200.0 mg/kg/injection, schedule: Q01DX009 (ip), vehicle: Klucel (hydroxypropylcellulose) (HPC)
[3] = dose: 50.0 mg/kg/injection, schedule: Q01DX001 (ip), vehicle: carboxymethylcellulose (CMC)
[4] = dose: 100.0 mg/kg/injection, schedule: Q04DX003 (ip), vehicle: saline
[5] = dose: 200.0 mg/kg/injection, schedule: Q04DX003 (ip), vehicle: saline
[6] = dose: 400.0 mg/kg/injection, schedule: Q04DX003 (ip), vehicle: saline
[7] = dose: 100.0 mg/kg/injection, schedule: Q01DX001 (ip), vehicle: carboxymethylcellulose (CMC)

Measured: T/C

O=Cc1c2ccccc2cc2ccccc12
inactive: dose: 9.5 mg/kg/injection, schedule: Q01DX015 (ip), vehicle: saline 96 % of control | dose: 9.5 mg/kg/injection, schedule: Q## X015 (ip), vehicle: saline 94 % of control | dose: 9.7 mg/kg/injection, schedule: Q01DX015 (ip), vehicle: other 97 % of control | dose: 16.2 mg/kg/injection, schedule: Q01DX015 (ip), vehicle: other 107 % of control | dose: 16.2 mg/kg/injection, schedule: Q## X015 (ip), vehicle: saline 94 % of control | dose: 27.0 mg/kg/injection, schedule: Q01DX015 (ip), vehicle: other 104 % of control | dose: 27.0 mg/kg/injection, schedule: Q## X015 (ip), vehicle: saline 96 % of control | dose: 45.0 mg/kg/injection, schedule: Q01DX015 (ip), vehicle: other 91 % of control | dose: 45.0 mg/kg/injection, schedule: Q01DX015 (ip), vehicle: saline 96 % of control and 109 % of control | dose: 45.0 mg/kg/injection, schedule: Q## X015 (ip), vehicle: saline 94 % of control | dose: 50.0 mg/kg/injection, schedule: Q01DX001 (ip), vehicle: saline 95 % of control and 100 % of control and 103 % of control | dose: 100.0 mg/kg/injection, schedule: Q01DX001 (ip), vehicle: saline 97 % of control and 100 % of control and 103 % of control | dose: 200.0 mg/kg/injection, schedule: Q01DX001 (ip), vehicle: saline 101 % of control | dose: 400.0 mg/kg/injection, schedule: Q01DX001 (ip), vehicle: saline 97 % of control and 101 % of control and 114 % of control | dose: 800.0 mg/kg/injection, schedule: Q01DX001 (ip), vehicle: saline 100 % of control

CCCCCCCC/C=C\CCCCCCCC(=O)OCCCCCCCCCCCCCCCCCC
inactive: [1] 104 % of control | dose: 100.0 mg/kg/injection, schedule: Q01DX009 (ip), vehicle: saline sonified 105 % of control | [2] 91 % of control | dose: 200.0 mg/kg/injection, schedule: Q01DX009 (ip), vehicle: saline sonified 93 % of control | dose: 400.0 mg/kg/injection, schedule: Q01DX009 (ip), vehicle: Klucel (hydroxypropylcellulose) (HPC) 105 % of control | dose: 400.0 mg/kg/injection, schedule: Q01DX009 (ip), vehicle: saline sonified 98 % of control

COC(c1ccccc1)[CH]([Hg][Br])C(=O)OC1CC2CCC1(C)C2(C)C (configuration not stated)
inactive: [3] 93 % of control

CCOC(=O)/C=N/Nc1ccc([N+](=O)[O-])cc1[N+](=O)[O-]
inactive: dose: 50.0 mg/kg/injection, schedule: Q01DX001 (ip), vehicle: other 95 % of control | dose: 100.0 mg/kg/injection, schedule: Q01DX001 (ip), vehicle: other 90 % of control | dose: 200.0 mg/kg/injection, schedule: Q01DX001 (ip), vehicle: other 95 % of control | dose: 400.0 mg/kg/injection, schedule: Q01DX001 (ip), vehicle: other 92 % of control

O=C1c2cscc2C(O)(c2ccccc2)c2c(Cl)sc(Cl)c21 (configuration not stated)
inactive: dose: 100.0 mg/kg/injection, schedule: Q01DX001 (ip), vehicle: saline with Tween-80 88 % of control | dose: 200.0 mg/kg/injection, schedule: Q01DX001 (ip), vehicle: saline with Tween-80 88 % of control | dose: 400.0 mg/kg/injection, schedule: Q01DX001 (ip), vehicle: saline with Tween-80 88 % of control

Cc1ccc(S(=O)(=O)n2cc[nH]c2=O)cc1
inactive: dose: 100.0 mg/kg/injection, schedule: Q01DX001 (ip), vehicle: Klucel (hydroxypropylcellulose) (HPC) 100 % of control | dose: 200.0 mg/kg/injection, schedule: Q01DX001 (ip), vehicle: Klucel (hydroxypropylcellulose) (HPC) 100 % of control | dose: 400.0 mg/kg/injection, schedule: Q01DX001 (ip), vehicle: Klucel (hydroxypropylcellulose) (HPC) 105 % of control

CCN(CC)CCOc1ccc(/C=C(/C(=O)c2ccccc2)c2ccccc2)cc1
inactive: dose: 100.0 mg/kg/injection, schedule: Q04DX003 (sc), vehicle: olive oil, sesame oil, peanut oil 101 % of control | dose: 200.0 mg/kg/injection, schedule: Q04DX003 (sc), vehicle: olive oil, sesame oil, peanut oil 101 % of control | dose: 400.0 mg/kg/injection, schedule: Q04DX003 (sc), vehicle: olive oil, sesame oil, peanut oil 101 % of control

CCCCNC(=O)c1cc(NC(=O)c2ccc(C(=O)Nc3cc(C(=O)NCCCC)cc(C4N=CCN4)c3)cc2)cc(C2=NCCN2)c1 (configuration not stated)
inactive: dose: 5.0 mg/kg/injection, schedule: Q01DX015 (ip), vehicle: methylcellulose (MC) 86 % of control | dose: 20.0 mg/kg/injection, schedule: Q01DX015 (ip), vehicle: methylcellulose (MC) 86 % of control | dose: 40.0 mg/kg/injection, schedule: Q01DX015 (ip), vehicle: methylcellulose (MC) 91 % of control | dose: 62.0 mg/kg/injection, schedule: Q01DX015 (ip), vehicle: methylcellulose (MC) 100 % of control

O=C1OC(Cc2ccccc2)(c2ccccc2)c2ccccc21 (configuration not stated)
inactive: dose: 50.0 mg/kg/injection, schedule: Q01DX009 (ip), vehicle: saline with Tween-80 90 % of control | dose: 100.0 mg/kg/injection, schedule: Q01DX009 (ip), vehicle: saline with Tween-80 88 % of control | dose: 200.0 mg/kg/injection, schedule: Q01DX009 (ip), vehicle: saline with Tween-80 89 % of control

CCC[CH2][Sn]([CH2]C)([CH2]C)[O]C(C)=O
inactive: dose: 5.0 mg/kg/injection, schedule: Q01DX001 (ip), vehicle: saline with Tween-80 90 % of control | dose: 10.0 mg/kg/injection, schedule: Q01DX001 (ip), vehicle: saline with Tween-80 93 % of control

CC(=O)Nc1ccc2c3c(ccc([N+](=O)[O-])c13)CC2
inactive: dose: 100.0 mg/kg/injection, schedule: Q01DX009 (ip), vehicle: saline 90 % of control | [4] 108 % of control | dose: 200.0 mg/kg/injection, schedule: Q01DX009 (ip), vehicle: saline 93 % of control | [5] 110 % of control | dose: 400.0 mg/kg/injection, schedule: Q01DX009 (ip), vehicle: saline 108 % of control | [6] 110 % of control

O=C(Nc1ccccc1)c1ccco1
inactive: dose: 50.0 mg/kg/injection, schedule: Q01DX009 (ip), vehicle: Klucel (hydroxypropylcellulose) (HPC) 102 % of control | [1] 102 % of control | dose: 100.0 mg/kg/injection, schedule: Q04DX002 (ip), vehicle: Klucel (hydroxypropylcellulose) (HPC) 102 % of control | [2] 100 % of control | dose: 200.0 mg/kg/injection, schedule: Q04DX002 (ip), vehicle: Klucel (hydroxypropylcellulose) (HPC) 98 % of control | dose: 400.0 mg/kg/injection, schedule: Q04DX002 (ip), vehicle: Klucel (hydroxypropylcellulose) (HPC) 91 % of control

CC#CC#Cc1cccc(=O)o1
inactive: dose: 25.0 mg/kg/injection, schedule: Q04DX003 (ip), vehicle: other 90 % of control | dose: 50.0 mg/kg/injection, schedule: Q04DX003 (ip), vehicle: other 90 % of control | dose: 100.0 mg/kg/injection, schedule: Q04DX003 (ip), vehicle: other 108 % of control

Cc1nc2c(-c3ccccc3)cc(Cl)cc2s1
inactive: [4] 100 % of control | [5] 101 % of control | [6] 95 % of control

Nc1ncnc2nncnc12
inactive: [3] 93 % of control | [7] 93 % of control

COC1(OC)CCC2(C)C(CCCC2OS(=O)(=O)c2ccc(C)cc2)C1 (configuration not stated)
inactive: [7] 97 % of control | dose: 200.0 mg/kg/injection, schedule: Q01DX001 (ip), vehicle: carboxymethylcellulose (CMC) 108 % of control | dose: 400.0 mg/kg/injection, schedule: Q01DX001 (ip), vehicle: carboxymethylcellulose (CMC) 97 % of control
